The values that follow come from article PMC11984924, “Dipeptidic Phosphonates: Potent Inhibitors of Pseudomonas aeruginosa Elastase B Showing Efficacy in a Murine Keratitis Model” (Advanced Science, 2025).

Data set [1] in a line: Kinetic solubility in PBS pH 7.4. To be noted: aqueous buffer, kinetic from dmso stock. Format: physicochemical. The protocol:
The desired compounds were sequentially diluted in DMSO in a 96-well plate. 1.5 µL of each well were transferred into another 96-well plate and mixed with 148.5 µL of PBS. Plates were shaken for 5 min at 600 rpm at room temperature (r.t.), and the absorbance at 620 nm was measured. Absorbance values were normalized by blank subtraction and plotted using GraphPad Prism 8.4.2 (GraphPad Software, San Diego, CA, USA). […]

A further data set can be described thus: Plasma stability, mouse. Format: in vitro ADME. As to conditions: CD-1, read-out: Plasma t1/2 Mouse. As for the experimental part: (§1) To determine stability in plasma, the compound (1 µM) was incubated with pooled CD -1 […]
(§2) mouse/human/Wistar rat or Göttingen minipig plasma (Neo Biotech, Nanterre, France).
(§3) Samples were taken by mixing aliquots with 4 volumes of acetonitrile containing internal […]
(§4) standard (125 nM diphenhydramine). The plasma stability of procain, propantheline and diltiazem were determined in parallel to confirm the enzymatic activity. Samples were stored […]
(§5) on ice until the end of the incubation and precipitated protein was removed by centrifugation […]
(§6) (15 min, 4 °C, 4,000 g, two centrifugation steps). Concentration of the remaining test compound at the different time points was analyzed by HPLC-MS/MS (TSQ Quantum Access MAX, […]
(§7) Thermo Fisher, Dreieich, Germany) and used to determine half-life (t1/2).
(§8) Table S2: Additional in vitro ADMET data for selected dipeptides. n.d.: not determined.
(§9) Kinetic Liver S9 Clint [µL/mg/min] Plasma t1/2 [min] LogD7.4 […]
(§10) pH 7.4 [µM] Mouse Human Mouse Human

The nature of a further data set: Plasma stability, human. Format: in vitro ADME. To be noted: read-out: Plasma t1/2 Human. As for the experimental part:
as §1, §2, §3, §4, §5, §6, §7, §8, §9, §10

In another data set the target is T1, MMP-1 (Homo sapiens, UniProt P03956).
T1 construct: purchased AnaSpec (Fremont, CA, USA)
T1 sequence (P03956 100-469): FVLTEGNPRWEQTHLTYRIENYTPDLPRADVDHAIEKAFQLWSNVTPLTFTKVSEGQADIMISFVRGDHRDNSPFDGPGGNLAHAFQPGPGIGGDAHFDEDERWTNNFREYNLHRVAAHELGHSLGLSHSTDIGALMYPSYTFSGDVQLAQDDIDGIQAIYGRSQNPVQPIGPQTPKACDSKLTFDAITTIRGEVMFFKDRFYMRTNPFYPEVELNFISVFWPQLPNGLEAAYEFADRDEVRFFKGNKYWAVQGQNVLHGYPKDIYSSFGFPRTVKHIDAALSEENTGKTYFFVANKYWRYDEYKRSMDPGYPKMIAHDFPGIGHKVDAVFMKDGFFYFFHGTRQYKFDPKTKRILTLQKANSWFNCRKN
In words: MMP-1 inhibition (off-target). Format: biochemical. To be noted: read-out: MMP-1 % inhibition at 100 µM. As for the experimental part:
3.1 In vitro inhibition assays
LasB was expressed and purified as described previously.[3] In vitro inhibition assays (LasB, MMPs, TACE). All in vitro inhibition assays were performed as described previously.[10] TACE inhibitor screening kits were purchased from Sigma-Aldrich (Saint Louis, MO). MMPs along with the SensoLyte 520 Generic MMP Activity Kit Fluorimetric were purchased from AnaSpec (Fremont, CA, USA). The assays were performed according to the guidelines of the respective manufacturer. Fluorescence signals were measured using a CLARIOstar plate reader (BMG Labtech, Ortenberg, Germany). […]
3.8 Test against zinc metalloproteases MMP1–3 and TACE (ADAM17), and testing of
We selected a panel of human off -targets, including three human matrix metalloproteases (MMP-1, -2 and -3) and TACE (ADAM-17). These assays were performed as described previously.[3] The TACE inhibitor screening kit was purchased from Sigma -Aldrich (Saint Louis, MO). MMPs along with the SensoLyte 520 Generic MMP Activity Kit Fluorimetric were purchased from AnaSpec (Fremont, CA, USA). The assays were performed according to the guidelines of the respective manufacturer. Fluorescence signals were measured using a CLARIOstar plate reader (BMG Labtech, Ortenberg, Germany). […]
Table S6: Percent (%) inhibition of three MMPs (1 –3) and TACE (ADAM17) in presence of selected LasB inhibitors at 100 µM. Results are means and SD of at least two independent experiments. […]
Compound [% inhibition at [% inhibition at [% inhibition at [% inhibition at 100

The test system of data set [2] is Pseudomonas aeruginosa strain PA14. In words: Antibacterial effect on P. aeruginosa PA14 growth. As to conditions: PA14, read-out: P. aeruginosa PA14 % inhibition of growth at 100 µM, 18 h, 37 °C. Format: cell-based. As for the experimental part:
Table S14: Food consumption after treatment with (R)-30.
Table S15: Body and organ weights (gram) after treatment with (R)-30.
3.12 Antibacterial effects
As start OD600 of Pseudomonas aeruginosa strain PA14 we used 0.03 in a total volume of 200
µL in lysogeny broth containing the compounds predissolved in DMSO (max. 1%). Final
compound concentrations prepared from serial dilutions ranged from 3.125 to 100 µM (double
values for each concentration). The ODs were determined after addition of the compounds and
again after incubation for 18 h at 37 °C and 200 rpm in 96 well plates (Sarstedt, Nümbrecht,
Germany) using a FLUOStar Omega (BMG labtech, Ortenberg, Germany). Given percent (%)
inhibition values are means of at least two independent determinations. To obtain the values
for a given compound, their ODs were compared to those of DMSO controls. Concerning the […]

For `CC(C)C[C@H](C(=O)N[C@H](C(=O)Nc1ccc(-n2ccnc2)cc1)C(C)C)P(=O)(O)O` [(R)‐36], in data set [1], the solubility (kinetic) at 5 min is > 200 µM. Further, the half-life at 1 µM in “Plasma stability, mouse” was > 2.5 h; in “Plasma stability, human” it was > 2.5 h. Besides, the inhibition at 100 µM (at MMP-1; in data set [2]) was < 10% each time.
`CC(=O)c1ccc(NC(=O)[C@@H](NC(=O)[C@@H](CC(C)C)P(=O)(O)O)C(C)C)cc1` [(R)‐30]: in data set [1], the solubility (kinetic) at 5 min is > 200 µM. The half-life at 1 µM in “Plasma stability, mouse” is > 2.5 h; in the data set “Plasma stability, human”, > 2.5 h. The inhibition at 100 µM (on MMP-1; in data set [2]) was < 10% each time.
Regarding `CC(C)CC(C(=O)N[C@H](C(=O)Nc1ccc(Cl)c(Cl)c1)C1CCCCC1)P(=O)(O)O` (stereo partly drawn) [compound 14], in data set [1], the kinetic solubility at 5 min is > 200 µM. Further, the half-life at 1 µM was > 2.5 h in “Plasma stability, mouse” and > 2.5 h in “Plasma stability, human”. Also, the inhibition at 100 µM (on MMP-1; in data set [2]) was < 10% throughout.
Consider `CC(C)CC(C(=O)N[C@H](C(=O)Nc1ccc(Cl)c(Cl)c1)C1CCC1)P(=O)(O)O` (stereo partly drawn) [compound 13], for which the solubility (kinetic) at 5 min in data set [1] was > 200 µM. The half-life at 1 µM in the data set “Plasma stability, mouse” was > 2.5 h; in “Plasma stability, human”, > 2.5 h. For the same compound, the inhibition at 100 µM (at MMP-1; in data set [2]) was < 10% throughout.
`CC(=O)c1ccc(NC(=O)[C@@H](NC(=O)C(CC(C)C)P(=O)(O)O)C(C)C)cc1` (stereo partly drawn) [compound 30]: the solubility (kinetic) at 5 min in data set [1] is > 200 µM. The half-life at 1 µM is > 2.5 h in the data set “Plasma stability, mouse” and > 2.5 h in the data set “Plasma stability, human”. The inhibition at 100 µM (at MMP-1; in data set [2]) was < 10% each time.
In the case of `CC(C)CC(C(=O)N[C@H](C(=O)Nc1ccc(Cl)c(Cl)c1)C(C)C)P(=O)(O)O` (stereo partly drawn) [compound 9], the kinetic solubility at 5 min in data set [1] is > 200 µM. Moreover, the half-life at 1 µM was > 2.5 h in “Plasma stability, mouse” and > 2.5 h in “Plasma stability, human”. For the same compound, the inhibition at 100 µM is 13 ± 1% at MMP-1 and < 10% in data set [2].
